The results in this text go back to PubChem BioAssay (NCI).

Holding throughout (assay): NCI anticancer screen, dose series, 48 h
The test system of experiment [1] is DU-145 prostate.
Experiment [2] concerns HS 578T breast.
In experiment [3] the test system is MDA-MB-435.
Experiment [4] relates to MDA-N.
For experiment [5], the system named is T-47D breast.
The test system of experiment [6] is DMS 273 small cell lung.
The test system of experiment [7] is RXF-631 renal.

Where “and” joins values, the source holds several entries; their conditions need not be identical. Equal values may be shown once.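 A five-concentration, 48-hour dose response in 96-well plates underlies each endpoint, interpolated linearly between surrounding concentrations. GI50 marks 50% less growth. Definition used: TGI = concentration required for complete inhibition of growth.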 Bounds are passed on as bounds.

On to `COc1cc(C(=O)C2CC3(CCC2(O)c2cc(OC)c(OC)c(OC)c2)CC(=O)Nc2ccccc2C3=O)cc(OC)c1OC` (configuration not stated), for which the TGI in experiment [1], in experiment [2], in experiment [3], in experiment [4] and in experiment [5] was more than 100 µM in each case.
With `Cc1c(C2=NN=C(N=Nc3c(O)cccc3O)/C2=C/c2ccccc2)c(=O)n(-c2ccccc2)n1C`, the TGI in experiment [6] was more than 100 µM.
The compound `CC(C)=CCC/C(C)=C/CCC1(C)C=Cc2c(c3ccccc3oc2=O)O1` (configuration not stated) displayed a TGI in experiment [6] of 32 µM.
For the compound `CC1SC(c2ccc(Cl)cc2)N(CCc2cccs2)C1=O` (configuration not stated), the GI50 in experiment [1] was 1.83 µM; in experiment [2] it was 1.53 µM; in experiment [3], 1.51 µM; in experiment [5], 1.29 µM. In addition, the TGI in experiment [1] was 4.87 µM; in experiment [2], 4.1 µM; in experiment [3], 3.06 µM; in experiment [5], 6.64 µM.
For `O=C(O)CCCc1ccccc1`, the GI50 in experiment [1] is more than 1000 µM; in experiment [2], more than 1000 µM; in experiment [3] it was 292 µM and > 1000 µM; in experiment [5] it was 203 µM and > 1000 µM. Also, the TGI in experiment [1] is more than 1000 µM; in experiment [2], 625 µM and > 1000 µM; in experiment [3], more than 1000 µM; in experiment [4], more than 1000 µM; in experiment [5], more than 1000 µM.
Regarding `COCCOCOC(C)(C)[C@H](CCO)O[Si](c1ccccc1)(c1ccccc1)C(C)(C)C`, the TGI in experiment [7] amounted to 21.7 µM.
In experiment [6], `O=C(O)C12CC3CC(C1)C2C=C3P(=O)(O)O` (configuration not stated) had a TGI of more than 100 µM.
As to `O=C1c2ccccc2C(=O)c2c1cc1c(c2[N+](=O)[O-])OCO1`, the GI50 in experiment [1] was 2.58 µM; in experiment [2], 2.28 µM; in experiment [3] it was 2.91 µM; in experiment [5] it was 0.551 µM. Further, the TGI in experiment [1] is 8.43 µM; in experiment [2], 6.02 µM; in experiment [3], 9.58 µM; in experiment [5] it was 6.33 µM.
In turn, `c1ccc2cc3c(cc2c1)OP1(Oc2cccc4cccnc24)(O3)Oc2cc3ccccc3cc2O1` gave a TGI in experiment [6] of 12.4 µM.
On to `COc1cc(/C=C/C2=C(C#N)C(=O)OC2(C)C)ccc1O`, for which the TGI in experiment [6] and in experiment [7] was more than 100 µM each time.
